Data set [1] is described as follows: Determination of disulfide E°′ (equilibration with oxidized β-mercaptoethanol, analytical HPLC, Nernst equation). The data set is classed as physicochemical. The settings on record: equilibrium with βME^ox, mean of three measurements. The protocol: (§1) Dithiol 2 was synthesized from diethylenetriamine in a few high-yielding steps (see: The Examples). Thiol pKa values were measured by monitored the thiols A238 am as a function of pH. […] These values are slightly less than those of BMC (Table 1), presumably due to the introduction of an additional electronegative nitrogen atom. To determine the reduction potential of the oxidized form of the dithiol, equimolar amounts of dithiol 2 and oxidized β-mercaptoethanol were equilibrated and the amount of each reduced and oxidized species was quantitated with analytical HPLC. […] Finally, to probe the effect of increasing hydrophobicity on catalyzing the formation of native disulfide bonds in proteins, dithiols 3-8 were synthesized.
The reduction potentials of BMC, 2, and 7 were determined as described previously. Briefly, an equilibrium was established between reduced BMC (or 2, 5, or 7) and βME^OX, and analyzed with analytical HPLC. The equilibrium concentrations were determined by integration of the peaks corresponding to βME and βME^ox. From these concentrations, the Keq for the reaction was determined and the reduction potential of BMC (or 2 or 7) was then calculated using the Nernst equation and EβME^OX^∘′=−0.260 V. The values reported are the mean (±SE) of three separate measurements for each compound

For data set [2], the target named is T1, sRNase A (Bos taurus, UniProt P61823).
T1 construct: purchased Sigma-Aldrich
T1 sequence (P61823 27-150): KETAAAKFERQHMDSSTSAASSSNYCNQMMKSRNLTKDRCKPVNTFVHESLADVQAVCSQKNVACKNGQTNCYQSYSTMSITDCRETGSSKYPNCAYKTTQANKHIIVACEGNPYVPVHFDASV
In words: Assay for disulfide-bond isomerization activity: unscrambling of sRNase A to give native RNase A. The data set is classed as biochemical, bovine. Particulars: for Folding yield (%): native RNase A from sRNase A, 1 mM catalyst, 30° C., 50 mM Tris-HCl pH 7.6, GSH 1.0 mM, GSSG 0.2 mM, after 5 h. The protocol:
FIGS. 4A and 4B are graphs illustrating catalysis of disulfide-bond isomerization by PDI and PDI mimics 1-7. (4A) Is a graph of the time-course for the unscrambling of sRNase A to give native RNase A. All reactions were performed at 30° C. in 50 mM Tris-HCl buffer, pH 7.6, containing GSH (1.0 mM), GSSG (0.2 mM), and PDI or dithiol 1-7 (1.0 mM). (4B) Is a graph of yield of native RNase A achieved by PDI mimics 2-7 after 5 h as a function of the calculated log P values listed in Table 1.
Enzymatic catalysis provides an extremely sensitive measure of native protein structure. RNase A contains eight cysteine residues, which could form 105 (=7×5×3×1) distinct fully oxidized species, only one of which gives rises to enzymatic activity (FIG. 3). Accordingly, the ability of this panel of compounds to catalyze the isomerization of “scrambled” RNase A (sRNase A) was tested. “Scrambled” RNase A is a random mixture of oxidized species, compared to its native state. The isomerization reaction was monitored by measuring the gain of catalytic activity.
sRNase was prepared as described previously, and validated by its having low ribonucleolytic activity and few free thiols according to Ellman's assay. Bovine liver PDI was from Sigma-Aldrich (product #P3818). The activation of sRNase A in the presence of refolding catalysts was determined as described previously. Refolding reactions were performed at 30° C. in 50 mM Tris-HCl buffer, pH 7.6, containing GSH (1.0 mM), GSSG (0.2 mM), and catalyst (1.0 mM). Organocatalysts were delivered from 100-fold concentrated stock solutions in DMSO. Reactions were initiated by the addition of sRNase A to a final concentration of 5 μg/mL. Reaction progress was monitored by quantifying the cleavage of the substrate 6-FAM-dArUdAdA-6-TAMRA at 493/515 nm, as described previously. Assays were performed in triplicate at ambient temperature in a black polystyrene 96-well plate, in 200 μL of 0.10 M MES-NaOH buffer, pH 6.0, containing NaCl (0.10 M). The resulting fluorescence data were fitted to the equation kcat/KM=(ΔI/Δt)/(If−I0)[E], in which ΔI/Δt is the initial reaction velocity, I0 is the fluorescence intensity before addition of any ribonuclease, If is the fluorescence intensity after complete substrate hydrolysis, and [E] is the total ribonuclease concentration. Reaction progress was monitored every hour until the increase in activity leveled off (˜5 h). In FIG. 4A, data were fitted to eq 2. [active RNase A]=[sRNase A]t=0(1−e^[catalyst]tk^obs) (2)

The conditions of data set [3]: cited from earlier work.
A short description of data set [4]: Determination of thiol pKa values (A238 vs pH). The data set is classed as physicochemical. The settings on record: potassium phosphate buffers of varied pH, absorbance at 238 nm, 0.10 M potassium phosphate buffers. The protocol: as §1
The thiol pKa values for 2 and 7 were determined by closely following a procedure reported previously that exploits the elevated absorbance of the deprotonated thiolate at 238 nm. […] [9, 55]
In eq 1, CT is the total thiol concentration, εSH^SH is the extinction coefficient of the doubly protonated form of 2 or 7, εSH^S− is the extinction coefficient of the singly protonated form of 2 or 7, and εS−^S− is the extinction coefficient of the doubly deprotonated form of 2 or 7.

For data set [5] the following is noted: PDI active-site disulfide; literature value [21, 22]; cited from earlier work.
[6] abbreviates: higher of two thiol pKa values, read-out: thiol pKa (second value).
Setting [7] is: lower of two thiol pKa values, read-out: thiol pKa (first value).

Results on eight molecules are retold here after patent US9630916B2, “Organocatalysts of oxidative protein folding” (Wisconsin Alumni Research Foundation, priority 2014, dated 2017).

Where “and” joins values, the source holds several entries; their conditions need not be identical. Identical values can stand only once. Like-named read-outs stand apart in the source and are kept apart here.

What is called pKa is the negative logarithm of the acid dissociation constant.

Regarding `O=C(CS)N[C@@H]1CCCC[C@H]1NC(=O)CS` (racemic) [Dithiol 1, (±)-trans-1,2-bis(mercaptoacetamido)cyclohexane, reference compound], in data set [1], the “Disulfide E°′” value is reported as −0.232 V. The “Folding yield (%)” value in data set [2] amounted to 42 ± 2%. In addition, in data set [3] (values from ref. [30]), the “thiol pKa (first value)” value was 8.3 and the “thiol pKa (second value)” value is 9.9.

For the molecule `O=C(CS)NCCNCCNC(=O)CS` [Dithiol 2], the values for the pKa in data set [4] (setting [6]) and in data set [4] (setting [7]) were 9.2 ± 0.1 and 8 ± 0.2, respectively. The figures for the “Disulfide E°′” value in data set [1] (listed as 2) and in data set [1] (listed as dithiol 2) were −0.192 V and −0.192±0.003 V, respectively. Also, in data set [2], the “Folding yield (%)” value is on record as 50 ± 2%.

As for `CC(=O)N(CCNC(=O)CS)CCNC(=O)CS` [Dithiol 3], the “Folding yield (%)” value in data set [2] turned out to be 45 ± 2%.

Consider `CCCC(=O)N(CCNC(=O)CS)CCNC(=O)CS` [Dithiol 4], for which the “Folding yield (%)” value in data set [2] was determined as 54 ± 4%.

For `CCCCCC(=O)N(CCNC(=O)CS)CCNC(=O)CS` [Dithiol 5], the results for the pKa in data set [4] (setting [6]) and in data set [4] (setting [7]) were 9.3 ± 0.3 and 8.1 ± 0.3, respectively. In data set [1], the “Disulfide E°′” value was −0.203 V. The “Folding yield (%)” value in data set [2] worked out at 57 ± 1%.

Turning to `O=C(CS)NCCN(CCNC(=O)CS)C(=O)c1ccccc1` [Dithiol 6], the “Folding yield (%)” value in data set [2] was 60 ± 2%.

With `CCc1ccc(C(=O)N(CCNC(=O)CS)CCNC(=O)CS)cc1` [Dithiol 7], the pKa was 9.4 ± 0.2 in data set [4] (setting [6]) and 8.1 ± 0.2 in data set [4] (setting [7]). In data set [1], the “Disulfide E°′” value is recorded as −0.206 V. Further, the “Folding yield (%)” value in data set [2] amounted to 66 ± 2%. The “increase of the yield of folded RNase A versus the uncatalyzed reaction” value in data set [2] (relative to uncatalyzed reaction (45 ± 2 %)) is recorded as 47%.

B1: PDI: enzyme protein disulfide isomerase (EC 5.3.4.1); bovine liver PDI from Sigma-Aldrich used in the assay (protein, UniProt P05307 21-510, looked up)
Protein disulfide-isomerase: APDEEDHVLVLHKGNFDEALAAHKYLLVEFYAPWCGHCKALAPEYAKAAGKLKAEGSEIRLAKVDATEESDLAQQYGVRGYPTIKFFKNGDTASPKEYTAGREADDIVNWLKKRTGPAASTLSDGAAAEALVESSEVAVIGFFKDMESDSAKQFFLAAEVIDDIPFGITSNSDVFSKYQLDKDGVVLFKKFDEGRNNFEGEVTKEKLLDFIKHNQLPLVIEFTEQTAPKIFGGEIKTHILLFLPKSVSDYEGKLSNFKKAAESFKGKILFIFIDSDHTDNQRILEFFGLKKEECPAVRLITLEEEMTKYKPESDELTAEKITEFCHRFLEGKIKPHLMSQELPDDWDKQPVKVLVGKNFEEVAFDEKKNVFVEFYAPWCGHCKQLAPIWDKLGETYKDHENIVIAKMDSTANEVEAVKVHSFPTLKFFPASADRTVIDYNGERTLDGFKKFLESGGQDGAGDDDDLEDLEEAEEPDLEEDDDQKAVKDEL
On to B1, for which the “Folding yield (%)” value in data set [2] is 87 ± 2%. In addition, the pKa in data set [3] (N-terminal cysteine in the active site of PDI, literature value) is 6.7. The “Disulfide E°′” value in data set [5] is −0.18 V and −0.180 V.
